Data reported in PMC9249808, “A novel lipidic peptide with potential to promote balanced effector-regulatory T cell responses” (Scientific Reports, 2022).
Values belong to the molecule of their own block, whether it stands above or below them. Non-standard residues stand in square brackets, D forms with d. Residues, ends and D or L forms follow the SMILES beside them. Gly(decyl) = CCCCCCCCCC[C@H](N)C(=O)O

Legend:
[1] = test system: Lck; details: in vitro; read-out: IC50, inhibition of Lck activity; cited from earlier work
[2] = test system: CD3+ T cell cultures; experiment: Cytokine ELISA on supernatants of isolated CD3+ T cell cultures; format: cell-based, human
Description: CD3^+ T cells were isolated from PBMCs by negative selection using immune-magnetic separation (Stem cell kits), resuspended in complete medium as used for PBMCs at 0.5 × 10^6/mL and plated at a density of 5 × 10^4 per well (100 µL) in 96-well, flat bottom culture plates. CD4^+ and CD8^+ T cell populations were isolated by immunomagnetic separation and resuspended in RPMI-10 at 0.5 × 10^6/mL with a plating density of 0.5 × 10^5 per well. Either the lipidic peptide, IK14004, or IK14000 ([…]) was added to wells at a final volume of 50 µL per well, together with anti-CD3 anti-CD28 coated Dynabeads (ThermoFisher) at a 4:1 cell:bead ratio (1.25 × 10^4/well, 50 µL volume) and cells cultured for 72 h at 37 °C and 5% CO2.
Supernatants were obtained from PBMC and isolated CD3+ T cells cultures to assess production of IL-2, IL-12p70, IL-10 and IFN-γ (ThermoFisher kits) and IL-12p40 (Biolegend). […] ELISA plates were read at 450 nm using an Infinite F50 (Tecan) absorbance reader and Magellan™ reader control and data analysis software. Flow cytometry data was exported as FCS files from Attune™ NxT software and analysed using FlowJo™ software, from which data were tabulated for export to Microsoft Excel. […]
For flow cytometry and ELISA experiments, data from IK14004 and vehicle groups were analysed using parametric statistical procedures. […]

[3] = test system: IL-2 production; details: cited from earlier work
[4] = target: T1, HPK1 (MAP4K1) (Homo sapiens, UniProt Q92918); experiment: Kinase profiling, HPK1; format: biochemical
T1 construct: purchased Eurofins (France), KinaseProfiler service
T1 sequence (Q92918 whole entry): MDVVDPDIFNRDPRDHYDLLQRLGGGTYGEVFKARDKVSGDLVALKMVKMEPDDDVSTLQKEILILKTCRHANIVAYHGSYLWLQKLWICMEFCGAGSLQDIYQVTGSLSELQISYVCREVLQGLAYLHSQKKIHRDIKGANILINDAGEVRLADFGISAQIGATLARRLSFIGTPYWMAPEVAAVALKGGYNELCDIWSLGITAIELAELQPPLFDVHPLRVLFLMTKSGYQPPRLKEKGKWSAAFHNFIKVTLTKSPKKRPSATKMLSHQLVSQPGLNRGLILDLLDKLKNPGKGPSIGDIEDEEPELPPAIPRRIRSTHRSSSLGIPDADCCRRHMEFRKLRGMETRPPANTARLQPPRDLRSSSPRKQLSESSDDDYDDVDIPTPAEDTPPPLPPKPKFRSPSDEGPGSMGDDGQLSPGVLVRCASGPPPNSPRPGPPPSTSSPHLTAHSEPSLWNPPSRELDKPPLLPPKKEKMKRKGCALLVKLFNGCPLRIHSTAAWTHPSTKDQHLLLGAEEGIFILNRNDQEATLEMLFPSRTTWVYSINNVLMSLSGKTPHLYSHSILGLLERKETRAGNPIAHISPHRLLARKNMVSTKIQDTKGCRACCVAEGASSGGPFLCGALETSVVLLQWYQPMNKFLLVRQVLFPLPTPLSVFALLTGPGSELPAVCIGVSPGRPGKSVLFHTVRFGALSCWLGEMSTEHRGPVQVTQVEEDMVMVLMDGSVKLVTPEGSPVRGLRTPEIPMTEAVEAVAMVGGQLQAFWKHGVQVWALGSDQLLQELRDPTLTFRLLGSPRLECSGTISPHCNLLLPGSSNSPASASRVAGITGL
Description: (§1) Non-cell-based kinase profiling assays were performed by Eurofins (France). All compounds were prepared to 50 × final assay concentration in 100% DMSO. This working stock of the compound was added to assay wells as the first component in the reaction, followed by the remaining components as detailed in the specific assay protocols below. In the standard KinaseProfiler service, there was no pre-incubation step between the compound and the kinase prior to initiation of the reaction. Control wells contained all components of the reaction, except the compound of interest; however, DMSO (at a final concentration of 2%) was included in these wells to control for solvent effects. […] The reference inhibitors for each kinase are indicated in the methods for each kinase assay. […] Kinase activities were assessed in the presence of compounds at a concentration range of 0.003 -10 uM and the following kinases were tested: c-Src, Lck, Jak1, Jak2, Tyk2, CaMKIV and HPK1 (MAP4K1). Reactions between IK14004, substrates and MgAcetate/[γ^33P-ATP] mixes for each respective kinase were stopped by the addition of phosphoric acid and reaction mixtures spotted on P30 filtermats for scintillation according to the detailed methods available from Eurofins. The activities of Lck and c-Src were also assessed in the presence of the unconjugated components of IK14004, i.e., […] […]

[5] = target: T2, JAK1 (Homo sapiens, UniProt P23458); experiment: Kinase profiling, JAK1; format: biochemical
T2 construct: purchased Eurofins (France), KinaseProfiler service
T2 sequence (P23458 whole entry): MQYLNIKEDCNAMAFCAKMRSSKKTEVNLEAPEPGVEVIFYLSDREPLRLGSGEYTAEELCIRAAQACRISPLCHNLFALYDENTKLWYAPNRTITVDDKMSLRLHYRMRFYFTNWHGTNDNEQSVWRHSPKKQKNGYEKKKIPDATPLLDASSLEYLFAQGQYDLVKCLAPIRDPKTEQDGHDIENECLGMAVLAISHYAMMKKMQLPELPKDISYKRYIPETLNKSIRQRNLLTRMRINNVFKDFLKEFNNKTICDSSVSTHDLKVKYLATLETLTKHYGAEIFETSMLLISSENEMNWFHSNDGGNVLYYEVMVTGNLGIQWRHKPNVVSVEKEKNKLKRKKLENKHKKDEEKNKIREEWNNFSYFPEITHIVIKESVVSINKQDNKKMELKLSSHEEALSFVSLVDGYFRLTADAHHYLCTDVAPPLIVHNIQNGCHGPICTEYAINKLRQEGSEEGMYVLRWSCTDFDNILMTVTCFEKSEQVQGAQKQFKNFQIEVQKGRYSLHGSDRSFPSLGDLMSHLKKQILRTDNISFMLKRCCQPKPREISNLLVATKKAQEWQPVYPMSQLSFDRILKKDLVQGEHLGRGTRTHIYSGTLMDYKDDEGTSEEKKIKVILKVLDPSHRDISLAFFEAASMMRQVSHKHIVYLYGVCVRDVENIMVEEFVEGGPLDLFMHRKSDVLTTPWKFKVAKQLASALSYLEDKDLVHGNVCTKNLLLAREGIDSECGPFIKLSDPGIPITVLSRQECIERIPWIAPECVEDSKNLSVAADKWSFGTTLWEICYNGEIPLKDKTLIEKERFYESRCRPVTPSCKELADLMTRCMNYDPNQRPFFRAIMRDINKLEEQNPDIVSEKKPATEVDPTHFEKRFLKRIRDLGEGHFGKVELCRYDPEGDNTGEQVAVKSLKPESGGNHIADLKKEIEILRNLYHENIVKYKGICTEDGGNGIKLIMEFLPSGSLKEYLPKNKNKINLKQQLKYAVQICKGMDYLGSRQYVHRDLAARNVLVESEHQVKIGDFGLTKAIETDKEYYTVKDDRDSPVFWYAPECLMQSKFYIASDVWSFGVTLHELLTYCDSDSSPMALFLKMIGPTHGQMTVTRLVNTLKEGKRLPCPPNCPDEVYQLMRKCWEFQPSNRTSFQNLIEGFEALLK
Description: as §1

[6] = target: T3, CaMKIV (Homo sapiens, UniProt Q16566); experiment: Kinase profiling, CaMKIV; format: biochemical
T3 construct: purchased Eurofins (France), KinaseProfiler service
Description: as §1

[7] = target: T4, Tyk2 (Homo sapiens, UniProt P29597); experiment: Kinase profiling, Tyk2; format: biochemical; details: non-cell-based, [γ-33P-ATP], 2% DMSO, no pre-incubation, Fig. 6i
T4 construct: purchased Eurofins (France), KinaseProfiler service
T4 sequence (P29597 whole entry): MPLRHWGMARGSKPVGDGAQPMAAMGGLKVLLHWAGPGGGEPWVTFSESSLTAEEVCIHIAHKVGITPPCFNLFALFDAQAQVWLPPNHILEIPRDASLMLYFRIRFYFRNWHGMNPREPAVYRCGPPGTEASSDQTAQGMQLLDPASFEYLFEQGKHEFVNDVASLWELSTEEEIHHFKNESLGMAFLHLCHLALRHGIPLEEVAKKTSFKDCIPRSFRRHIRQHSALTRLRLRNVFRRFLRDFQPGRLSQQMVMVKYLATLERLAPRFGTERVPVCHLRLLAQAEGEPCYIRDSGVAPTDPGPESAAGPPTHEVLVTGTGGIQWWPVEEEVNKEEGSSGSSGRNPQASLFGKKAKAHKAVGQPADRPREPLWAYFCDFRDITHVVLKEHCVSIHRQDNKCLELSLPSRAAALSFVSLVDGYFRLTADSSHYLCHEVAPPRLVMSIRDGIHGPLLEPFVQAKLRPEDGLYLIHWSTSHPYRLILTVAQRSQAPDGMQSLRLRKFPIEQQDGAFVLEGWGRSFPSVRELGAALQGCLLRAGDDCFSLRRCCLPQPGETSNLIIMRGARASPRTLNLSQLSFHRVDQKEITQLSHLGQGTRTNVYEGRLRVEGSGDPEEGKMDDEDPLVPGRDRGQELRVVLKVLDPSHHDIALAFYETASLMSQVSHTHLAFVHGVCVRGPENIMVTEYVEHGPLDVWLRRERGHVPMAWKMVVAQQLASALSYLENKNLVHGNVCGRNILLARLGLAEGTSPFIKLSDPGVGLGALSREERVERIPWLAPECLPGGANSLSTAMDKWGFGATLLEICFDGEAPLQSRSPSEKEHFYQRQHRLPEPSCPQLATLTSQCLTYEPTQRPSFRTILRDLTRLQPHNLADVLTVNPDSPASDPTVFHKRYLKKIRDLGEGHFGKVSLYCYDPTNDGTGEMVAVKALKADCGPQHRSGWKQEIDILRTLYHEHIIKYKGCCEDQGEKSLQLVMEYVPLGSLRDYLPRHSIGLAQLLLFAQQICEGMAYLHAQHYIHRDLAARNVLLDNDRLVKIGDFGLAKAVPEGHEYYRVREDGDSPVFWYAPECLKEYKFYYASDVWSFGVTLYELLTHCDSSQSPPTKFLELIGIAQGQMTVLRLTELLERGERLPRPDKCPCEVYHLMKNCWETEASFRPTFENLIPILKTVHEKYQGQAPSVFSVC
Description: as §1

[8] = test system: Lck; experiment: Kinase profiling, Lck; format: biochemical; details: Eurofins KinaseProfiler, [γ-33P-ATP] scintillation, 0.003-10 uM, 2% DMSO, no pre-incubation, Fig. 6c, 6e
Description: Non-cell-based kinase profiling assays were performed by Eurofins (France). All compounds were prepared to 50 × final assay concentration in 100% DMSO. This working stock of the compound was added to assay wells as the first component in the reaction, followed by the remaining components as detailed in the specific assay protocols below. In the standard KinaseProfiler service, there was no pre-incubation step between the compound and the kinase prior to initiation of the reaction. Control wells contained all components of the reaction, except the compound of interest; however, DMSO (at a final concentration of 2%) was included in these wells to control for solvent effects. […] The reference inhibitors for each kinase are indicated in the methods for each kinase assay. […] Kinase activities were assessed in the presence of compounds at a concentration range of 0.003 -10 uM and the following kinases were tested: c-Src, Lck, Jak1, Jak2, Tyk2, CaMKIV and HPK1 (MAP4K1). Reactions between IK14004, substrates and MgAcetate/[γ^33P-ATP] mixes for each respective kinase were stopped by the addition of phosphoric acid and reaction mixtures spotted on P30 filtermats for scintillation according to the detailed methods available from Eurofins. The activities of Lck and c-Src were also assessed in the presence of the unconjugated components of IK14004, i.e., […] (IK14000) and the dodecanoic acid moiety [(2)Adod]4 (IK00041) and a lipidic peptide containing substituted amino acid residues (IK14DE04).

[9] = test system: c-Src; experiment: Kinase profiling, c-Src; format: biochemical; details: Eurofins KinaseProfiler, [γ-33P-ATP] scintillation, 0.003-10 uM, 2% DMSO, no pre-incubation; Fig. 6d (IK14004 at concentrations below 3 µM), Fig. 6e
Description: as §1

[10] = test system: CD40L expression; details: 48 h, in vitro; cited from earlier work
From the text: An integrated understanding of how IL-2 and TCR co-stimulatory signals combine to control homeostasis in distinct tissue locations is lacking. The effects of IK14004 on cytokine production are shown in the Schematic (Fig. 7) together with putative effects on kinase-mediated signalling pathways involved in production of these cytokines. Maturation of DCs involves CD40L-CD40 interactions dependent upon T helper expression of CD40L[21],[22].

[11] = blank wells, baseline 0% kinase activity remaining

Molecule: COc1cc(-c2nn([C@H]3CC[C@H](N4CCN(C(C)=O)CC4)CC3)c3ncnc(N)c23)ccc1NC(=O)c1cc2ccccc2n1C [A-770041]
IC50 [1]: 0.147 µM | IL-2 in supernatant of CD3+ T cell cultures, A-770041 ([2]; 0.1 µM in 0.1% DMSO, anti-CD3/anti-CD28, 72 h, ELISA, 7 experimental replicates, paired t-test **P < 0.01, Fig. 6a): induced IL-2 production | IL-2 level relative to IK14004 ([2]; A-770041 0.1 µM versus IK14004 (0.16 uM), 72 h, Fig. 6a vs 1f): much greater level than in the presence of IK14004 | IL-2 production, whole blood ([3]; heparinised whole blood exposed to anti-CD3 plus PMA, ref Stachlewitz and colleagues [66]): inhibition of IL-2 production | IC50 ([3]; read-out: IC50, inhibition of IL-2 production, in vitro): 0.08 µM

IC50 ([4]; non-cell-based, [γ-33P-ATP], 2% DMSO, no pre-incubation, Fig. 6f): ~1 µM | IC50 ([5]; non-cell-based, [γ-33P-ATP], 2% DMSO, no pre-incubation, Fig. 6i): 3 µM | IC50 ([6]; non-cell-based, [γ-33P-ATP], 2% DMSO, no pre-incubation, Fig. 6h): 3 µM | IC50 [7]: 1 µM
Molecule: CCCCCCCCCC[C@H](NC(=O)[C@H](CCCCCCCCCC)NC(=O)[C@H](CCCCCCCCCC)NC(=O)[C@H](CCCCCCCCCC)NC(=O)[C@H](CCCNC(=N)N)NC(=O)[C@H](Cc1ccc(O)cc1)NC(=O)[C@H](CC(C)C)NC(=O)[C@@H]1CCCN1C(=O)[C@H](CC(N)=O)NC(=O)[C@H](CCCCN)NC(=O)[C@H](C)NC(=O)[C@H](CCCCN)NC(=O)[C@H](CO)NC(=O)[C@@H](N)CCCNC(=N)N)C(N)=O [IK14004] (H-RSKAKNPLYR[Gly(decyl)][Gly(decyl)][Gly(decyl)][Gly(decyl)]-NH2)

Molecule: CN[C@@H]1C[C@H]2O[C@@](C)([C@@H]1OC)n1c3ccccc3c3c4c(c5c6ccccc6n2c5c31)C(=O)NC4 [staurosporine, reference compound]
HPK1 activity, reference inhibitor [4, 11]: abolished kinase activity | JAK1 activity, reference inhibitor [5, 11]: abolished kinase activity | CaMKIV activity, reference inhibitor [6, 11]: abolished kinase activity

Lck activity [8]: abolished the effects of IK14004 | c-Src activity [9]: abolished the effects of IK14004
Molecule: DSEAENPLYD [IK14DE04]

Molecule: [(2)Adod]4 [IK00041]
Lck activity [8]: neither IK14000 nor IK00041 had an effect

B1: daclizumab: a humanised anti-CD25 mAb (antibody, chains of the INN, looked up, V domains shown)
VH: QVQLVQSGAEVKKPGSSVKVSCKASGYTFTSYRMHWVRQAPGQGLEWIGYINPSTGYTEYNQKFKDKATITADESTNTAYMELSSLRSEDTAVYYCARGGGVFDYWGQGTLVTVSS
VL: DIQMTQSPSTLSASVGDRVTITCSASSSISYMHWYQQKPGKAPKLLIYTTSNLASGVPARFSGSGSGTEFTLTISSLQPDDFATYYCHQRSTYPLTFGQGTKVEVK
CD40L expression at later time points [10]: inhibitable
